{"source": "patent US10487054B2", "about": "“Therapeutic compounds” (REGENTS OF THE UNIVERSITY OF MINNESOTA, priority 2017, dated 2019)", "system": "JB6 P+ cells", "experiment": "Anchorage-independent cell growth assay (EGF-induced neoplastic transformation)", "type": "cell-based, mouse", "conditions": "EGF 10 ng/ml, different concentrations", "experimental": "Cells were exposed to EGF (10 ng/ml) and treated with increasing concentrations of compound 1. Representative photographs are shown and data are presented as mean values±S.D. from triplicate experiments. […] Cells were treated with different concentrations of compound 1 for several days and cell proliferation was determined by a crystal violet staining assay.\nCells (8×10^3/well) were seeded into 6-well plates with 0.3% Basal Medium Eagle agar containing 10% FBS with epidermal growth factor (EGF, 10 ng/ml) and different concentrations of compound 1 and then cultured for 1 to 2 weeks. Colonies were scored under a microscope using the Image-Pro PLUS (v6.) computer software program (Media Cybernetics. Rockville, Md.)."}
{"smiles": "O=C1Nc2ccc(C34CC5CC(CC(C5)C3)C4)cc2C1=NO", "note": "[compound 1, 5-(adamantan-1-yl)-3-(hydroxyimino)indolin-2-one]", "values": [{"measurement": "EGF-induced colony formation", "value": "attenuated"}]}
